Test results: publication PMC3433560 (Bioorganic & medicinal chemistry letters, 2012)

Target: KCNQ1 channels (Homo sapiens, UniProt P51787)
Assay: cell-based

KCNQ1 channels, sequence (P51787 whole entry): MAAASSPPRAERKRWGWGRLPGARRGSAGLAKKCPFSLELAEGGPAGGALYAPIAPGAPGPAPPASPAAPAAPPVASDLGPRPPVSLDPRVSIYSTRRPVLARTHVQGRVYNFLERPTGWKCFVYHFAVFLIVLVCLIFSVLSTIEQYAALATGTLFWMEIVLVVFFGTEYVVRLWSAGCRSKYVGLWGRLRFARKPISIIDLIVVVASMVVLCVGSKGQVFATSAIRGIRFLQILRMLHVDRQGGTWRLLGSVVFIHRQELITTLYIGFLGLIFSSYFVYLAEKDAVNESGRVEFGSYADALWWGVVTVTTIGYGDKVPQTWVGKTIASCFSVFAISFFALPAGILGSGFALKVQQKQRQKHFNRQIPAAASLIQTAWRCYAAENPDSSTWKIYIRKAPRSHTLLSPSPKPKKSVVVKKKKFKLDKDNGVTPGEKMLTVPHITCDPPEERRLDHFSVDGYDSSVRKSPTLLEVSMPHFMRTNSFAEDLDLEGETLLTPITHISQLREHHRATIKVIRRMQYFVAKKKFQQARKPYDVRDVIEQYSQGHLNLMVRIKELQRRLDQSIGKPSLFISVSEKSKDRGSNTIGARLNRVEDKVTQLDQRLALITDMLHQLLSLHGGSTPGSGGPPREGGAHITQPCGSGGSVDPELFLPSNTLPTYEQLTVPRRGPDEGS

- EC50: 660 nM
SMILES: COc1ccc(-c2csc(NC(=O)C3CCCCN3S(=O)(=O)c3ccccc3)n2)cc1 (stereo not shown) [compound 5]
